Measurements as given in BindingDB's records for PubMed 12232544 (Emory University, 2002).
Values joined by “and” are separate entries in the source; they are usually repeats but may differ in a detail not shown here. Equal values may be shown once. Where a name gives a salt, the structure may show the parent alone.

biological target: T1, 5-hydroxytryptamine receptor 2C (Sus scrofa, UniProt K7GSR7)
T1 sequence (K7GSR7 whole entry): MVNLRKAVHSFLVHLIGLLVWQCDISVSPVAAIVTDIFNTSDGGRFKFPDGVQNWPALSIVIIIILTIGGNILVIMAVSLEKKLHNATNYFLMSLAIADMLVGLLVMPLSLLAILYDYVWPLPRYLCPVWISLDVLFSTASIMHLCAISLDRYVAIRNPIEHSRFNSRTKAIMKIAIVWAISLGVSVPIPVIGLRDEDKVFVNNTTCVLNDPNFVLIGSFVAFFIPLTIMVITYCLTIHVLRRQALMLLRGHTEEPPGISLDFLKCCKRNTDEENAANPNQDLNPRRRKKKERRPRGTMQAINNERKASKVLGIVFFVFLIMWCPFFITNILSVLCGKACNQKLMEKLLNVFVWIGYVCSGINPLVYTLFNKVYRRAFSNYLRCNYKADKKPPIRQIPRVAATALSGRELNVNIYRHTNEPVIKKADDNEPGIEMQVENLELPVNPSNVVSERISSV

Row | Compound | Ki
1 | COCCCC/C(=N\OCCN)c1ccc(C(F)(F)F)cc1 [(1E)-5-methoxy-1-[4-(trifluoromethyl)phenyl]pentan-1-one O-(2-aminoethyl)oxime] | 5.79 µM
2 | CN(C)CCCC1(c2ccc(F)cc2)OCc2cc(C#N)ccc21 (stereo not drawn) [CITALOPRAM HYDROBROMIDE] | 2.05 µM and 2.53 µM
3 | Fc1ccc([C@@H]2CCNC[C@H]2COc2ccc3c(c2)OCO3)cc1 [PAROXETINE] | 9.03 µM
4 | CN(C)CCC[C@]1(c2ccc(F)cc2)OCc2cc(C#N)ccc21 [R-citalopram] | 1.8 µM
5 | CN[C@@H]1CC[C@@H](c2ccc(Cl)c(Cl)c2)c2ccccc21 [[4-(3,4-Dichloro-phenyl)-1,2,3,4-tetrahydro-naphthalen-1-yl]-methyl-amine] | 2.3 µM

biological target: T2, Alpha-1A adrenergic receptor (Homo sapiens, UniProt P35348)
T2 sequence (P35348 whole entry): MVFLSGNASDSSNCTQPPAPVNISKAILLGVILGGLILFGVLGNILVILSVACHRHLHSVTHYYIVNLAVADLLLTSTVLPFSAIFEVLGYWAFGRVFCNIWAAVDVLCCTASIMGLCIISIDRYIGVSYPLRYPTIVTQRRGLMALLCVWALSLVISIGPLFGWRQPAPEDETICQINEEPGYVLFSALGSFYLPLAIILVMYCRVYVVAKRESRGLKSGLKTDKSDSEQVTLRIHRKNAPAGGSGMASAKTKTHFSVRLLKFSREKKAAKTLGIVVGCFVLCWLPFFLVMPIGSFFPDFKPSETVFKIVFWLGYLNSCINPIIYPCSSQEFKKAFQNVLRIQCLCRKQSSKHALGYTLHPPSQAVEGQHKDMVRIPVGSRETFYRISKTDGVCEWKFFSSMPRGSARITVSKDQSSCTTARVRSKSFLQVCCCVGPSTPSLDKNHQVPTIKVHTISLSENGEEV

Row | Compound | Ki
6 | CN[C@@H]1CC[C@@H](c2ccc(Cl)c(Cl)c2)c2ccccc21 [[4-(3,4-Dichloro-phenyl)-1,2,3,4-tetrahydro-naphthalen-1-yl]-methyl-amine] | 0.188 µM

biological target: Histamine H1 receptor (Cavia porcellus, UniProt P31389)
Sequence (P31389 whole entry): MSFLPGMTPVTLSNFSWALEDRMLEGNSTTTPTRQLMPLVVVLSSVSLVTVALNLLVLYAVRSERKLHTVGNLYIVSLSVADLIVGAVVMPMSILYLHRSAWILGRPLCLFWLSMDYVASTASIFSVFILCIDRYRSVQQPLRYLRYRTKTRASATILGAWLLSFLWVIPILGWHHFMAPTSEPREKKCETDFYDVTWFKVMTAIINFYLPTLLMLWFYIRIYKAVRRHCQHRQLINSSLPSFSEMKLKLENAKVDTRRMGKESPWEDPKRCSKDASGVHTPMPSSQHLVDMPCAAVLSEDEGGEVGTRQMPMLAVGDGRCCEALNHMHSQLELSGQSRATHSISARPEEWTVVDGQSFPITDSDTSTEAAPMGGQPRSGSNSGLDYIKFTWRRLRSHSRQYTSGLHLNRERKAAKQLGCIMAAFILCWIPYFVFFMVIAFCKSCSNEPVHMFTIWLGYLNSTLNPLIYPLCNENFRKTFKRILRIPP

Row | Compound | Ki
7 | COCCCC/C(=N\OCCN)c1ccc(C(F)(F)F)cc1 [(1E)-5-methoxy-1-[4-(trifluoromethyl)phenyl]pentan-1-one O-(2-aminoethyl)oxime] | > 10 µM
8 | CN(C)CCCC1(c2ccc(F)cc2)OCc2cc(C#N)ccc21 (stereo not drawn) [CITALOPRAM HYDROBROMIDE] | 0.283 µM and 1.97 µM
9 | CNCC[C@@H](Oc1ccc(C(F)(F)F)cc1)c1ccccc1 [Fluoxetine-R-(-)] | 0.812 µM
10 | Fc1ccc([C@@H]2CCNC[C@H]2COc2ccc3c(c2)OCO3)cc1 [PAROXETINE] | > 10 µM
11 | CNCC[C@@H](Oc1ccc(C(F)(F)F)cc1)c1ccccc1 [Prozac] | 1.55 µM
12 | CN(C)CCC[C@]1(c2ccc(F)cc2)OCc2cc(C#N)ccc21 [R-citalopram] | 0.181 µM
13 | CN[C@@H]1CC[C@@H](c2ccc(Cl)c(Cl)c2)c2ccccc21 [[4-(3,4-Dichloro-phenyl)-1,2,3,4-tetrahydro-naphthalen-1-yl]-methyl-amine] | 6.58 µM
